Our source for the inhibition of growth values is patent publication US20040010036A1, “N,N, -Substituted s-Aryl-Isothioureas, N,N,N, -Substituted s-Aryl-Isothioureas and combinatorial libraries thereof” (priority 2002, published 2004).

This test has as its system Streptococcus pyogenes (ATCC# 97-03 14289). As to the kind of experiment: Anti-microbial screen (percent inhibition of growth, OD 570 nm). To be noted: Conc 0.1776 mg ml. In kind it is cell-based. A digest of the protocol:
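Frozen stock diluted into 2×THB, compounds in DMSO added at time zero. OD 570 nm read at 0 h to correct for insoluble or coloured compounds and again at 4 h. Percent growth inhibition calculated against blank-corrected solvent controls.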

Where [1] appears, read: Spy4H: Streptococcus pyogenes, read at 4 hours, OD 570 nm.
Where [2] appears, read: Streptococcus pyogenes, Assay Spy4H, plates read at 570 nm at 0 time and at 4 hours.

On to `COc1cccc(CCN(Cc2ccc(O)cc2)/C(=N/c2ccc(Cl)c([N+](=O)[O-])c2)Sc2ccccc2)c1` [Cmpd 903], for which testing at 177.6 µg/mL under setting [1] gave an inhibition of growth of 95.7%.

Turning to `COc1cccc(S/C(=N\Cc2cccc(C)c2)N(CCc2ccc(F)cc2)Cc2cccc(O)c2)c1` [Cmpd 922], the inhibition of growth (commonly the relative decrease from the control value, in per cent) at 177.6 µg/mL under setting [1] came to 84.3%.

For `COc1cccc(S/C(=N\c2cccc(F)c2)N(CCc2ccc(F)cc2)Cc2cccc(O)c2)c1` [Cmpd 923], under setting [1], the inhibition of growth at 177.6 µg/mL amounted to 63.9%.

With `COc1cccc(S/C(=N\c2cccc(C(F)(F)F)c2)N(CCc2ccc(F)cc2)Cc2cccc(O)c2)c1` [Cmpd 926], the inhibition of growth at 177.6 µg/mL under setting [1] was found to be 96%.

Molecule `COc1cccc(S/C(=N\c2ccc(C(F)(F)F)cc2)N(CCc2ccc(F)cc2)Cc2cccc(O)c2)c1` [Cmpd 927] yielded an inhibition of growth at 177.6 µg/mL under setting [2] of 49.4%.

The molecule `COc1cccc(S/C(=N\c2cc(Cl)cc(Cl)c2)N(CCc2ccc(F)cc2)Cc2cccc(O)c2)c1` [Cmpd 933] displayed an inhibition of growth at 177.6 µg/mL under setting [1] of 59.8%.

Take `COc1cccc(S/C(=N\c2ccc(F)c(Cl)c2)N(CCc2ccc(F)cc2)Cc2cccc(O)c2)c1` [Cmpd 934]: the inhibition of growth at 177.6 µg/mL under setting [1] was determined as 94%.

`COc1cccc(S/C(=N\c2ccc(C)c(Cl)c2)N(CCc2ccc(F)cc2)Cc2cccc(O)c2)c1` [Cmpd 935] came in with an inhibition of growth at 177.6 µg/mL under setting [1] of 66.3%.

Regarding `COc1cccc(/N=C(\Sc2cccc(OC)c2)N(CCc2ccc(F)cc2)Cc2cccc(O)c2)c1` [Cmpd 936], at 177.6 µg/mL the inhibition of growth under setting [2] was 56.3%.

Under setting [2], `COc1cccc(S/C(=N\c2ccc(Cl)c([N+](=O)[O-])c2)N(CCc2ccc(F)cc2)Cc2cccc(O)c2)c1` [Cmpd 943] returned an inhibition of growth at 177.6 µg/mL of 50.8%.

The molecule `COc1cccc(S/C(=N/c2ccc(Cl)c(C(F)(F)F)c2)N(CCc2ccc(F)cc2)Cc2cccc(O)c2)c1` [Cmpd 953] gave an inhibition of growth at 177.6 µg/mL under setting [2] of 54.2%.

In turn, `COCCN(Cc1ccc(O)cc1)/C(=N\c1cc(Cl)cc(Cl)c1)Sc1ccc(C)cc1C` [Cmpd 1053] came in with an inhibition of growth at 177.6 µg/mL under setting [1] of 66%.

Under setting [1], `COCCN(Cc1ccc(O)cc1)/C(=N\c1ccc(Cl)c([N+](=O)[O-])c1)Sc1ccc(C)cc1C` [Cmpd 1063] came in with an inhibition of growth at 177.6 µg/mL of 73.8%.

For `COCCN(Cc1ccc(O)cc1)/C(=N\c1ccccc1F)Sc1ccc(C)cc1C` [Cmpd 1067], the inhibition of growth at 177.6 µg/mL under setting [2] is 53%.

As for `COCCN(Cc1ccc(O)cc1)/C(=N\c1ccc(Cl)c(C(F)(F)F)c1)Sc1ccc(C)cc1C` [Cmpd 1073], under setting [2], the inhibition of growth at 177.6 µg/mL came out at 54.4%.

Regarding `COCCN(Cc1ccc(O)cc1)/C(=N\c1ccc(F)c(F)c1)Sc1ccc(C)cc1C` [Cmpd 1076], the inhibition of growth at 177.6 µg/mL under setting [2] was 55.1%.

As for `COc1cccc(CN(Cc2ccc(O)cc2)/C(=N/c2cc(Cl)cc(Cl)c2)Sc2cccc(C)c2)c1` [Cmpd 1093], the inhibition of growth at 177.6 µg/mL under setting [1] turned out to be 87.1%.

With `COc1cccc(CN(Cc2ccc(O)cc2)/C(=N/c2ccc(Cl)c([N+](=O)[O-])c2)Sc2cccc(C)c2)c1` [Cmpd 1103], the inhibition of growth at 177.6 µg/mL under setting [1] turned out to be 59.5%.

Molecule `COc1cccc(CN(Cc2ccc(O)cc2)/C(=N/c2cc(C)ccc2OC)Sc2cccc(C)c2)c1` [Cmpd 1109] yielded an inhibition of growth at 177.6 µg/mL under setting [1] of 57.8%.

On to `COc1cccc(CN(Cc2ccc(O)cc2)/C(=N/c2ccc(Cl)c(C(F)(F)F)c2)Sc2cccc(C)c2)c1` [Cmpd 1113], for which, under setting [1], 177.6 µg/mL produced 64.3% inhibition of growth.

Regarding `Cc1cccc(S/C(=N/c2ccc(C(F)(F)F)cc2)N(Cc2ccccc2)Cc2cccc(O)c2)c1` [Cmpd 1127], the inhibition of growth at 177.6 µg/mL under setting [1] was 88.6%.

For the molecule `Cc1cccc(S/C(=N\c2ccc(Cl)c(Cl)c2)N(Cc2ccccc2)Cc2cccc(O)c2)c1` [Cmpd 1128], 177.6 µg/mL produced 51.5% inhibition of growth under setting [2].

For the molecule `Cc1cccc(S/C(=N\c2cc(Cl)cc(Cl)c2)N(Cc2ccccc2)Cc2cccc(O)c2)c1` [Cmpd 1133], at 177.6 µg/mL the inhibition of growth under setting [1] was 70.1%.

Regarding `Cc1cccc(S/C(=N\c2ccc(F)c(Cl)c2)N(Cc2ccccc2)Cc2cccc(O)c2)c1` [Cmpd 1134], under setting [2], 177.6 µg/mL produced 53.6% inhibition of growth.

As for `Cc1cccc(S/C(=N/c2ccc(Cl)c([N+](=O)[O-])c2)N(Cc2ccccc2)Cc2cccc(O)c2)c1` [Cmpd 1143], at 177.6 µg/mL the inhibition of growth under setting [1] was 97.1%.

For `Cc1cccc(S/C(=N\c2ccccc2[N+](=O)[O-])N(Cc2ccccc2)Cc2cccc(O)c2)c1` [Cmpd 1146], under setting [2], the inhibition of growth at 177.6 µg/mL is 56.4%.

As to `COc1ccc(C)cc1/N=C(\Sc1cccc(C)c1)N(Cc1ccccc1)Cc1cccc(O)c1` [Cmpd 1149], at 177.6 µg/mL the inhibition of growth under setting [1] was 76%.

In turn, `Cc1cccc(S/C(=N/c2ccc(Cl)c(C(F)(F)F)c2)N(Cc2ccccc2)Cc2cccc(O)c2)c1` [Cmpd 1153] registered an inhibition of growth at 177.6 µg/mL under setting [1] of 62.7%.

For the molecule `Cc1cccc(S/C(=N/c2ccc(OC(F)(F)F)cc2)N(Cc2ccccc2)Cc2cccc(O)c2)c1` [Cmpd 1155], under setting [2], the inhibition of growth at 177.6 µg/mL stood at 49.4%.

Under setting [1], `Cc1cccc(S/C(=N\c2ccc(F)c(F)c2)N(Cc2ccccc2)Cc2cccc(O)c2)c1` [Cmpd 1156] yielded an inhibition of growth at 177.6 µg/mL of 59.5%.

Regarding `Cc1cccc(S/C(=N\Cc2ccc(F)cc2)N(CCc2ccc(Cl)cc2)Cc2ccc(O)cc2)c1` [Cmpd 1164], under setting [1], 177.6 µg/mL produced 72.2% inhibition of growth.

Consider `Cc1cccc(S/C(=N\c2ccc(C(F)(F)F)cc2)N(CCc2ccc(Cl)cc2)Cc2ccc(O)cc2)c1` [Cmpd 1167], for which the inhibition of growth at 177.6 µg/mL under setting [1] amounted to 94.3%.

Regarding `Cc1cccc(S/C(=N\c2ccc(Cl)c([N+](=O)[O-])c2)N(CCc2ccc(Cl)cc2)Cc2ccc(O)cc2)c1` [Cmpd 1183], under setting [1], the inhibition of growth at 177.6 µg/mL was 62.7%.

For `Cc1cccc(S/C(=N\c2ccccc2[N+](=O)[O-])N(CCc2ccc(Cl)cc2)Cc2ccc(O)cc2)c1` [Cmpd 1186], under setting [2], the inhibition of growth at 177.6 µg/mL worked out at 52.9%.

Regarding `Cc1cccc(S/C(=N\c2ccc(Cl)c(C(F)(F)F)c2)N(CCc2ccc(Cl)cc2)Cc2ccc(O)cc2)c1` [Cmpd 1193], the inhibition of growth at 177.6 µg/mL under setting [2] amounted to 53.6%.

Under setting [1], `Cc1ccc(S/C(=N\c2ccc(Cl)c(C(F)(F)F)c2)N(Cc2ccc(O)cc2)Cc2ccc(Cl)c(Cl)c2)cc1` [Cmpd 1233] returned an inhibition of growth at 177.6 µg/mL of 61.5%.

Under setting [1], `Cc1ccc(S/C(=N\Cc2ccccc2)N(Cc2cccc(O)c2)CC2CCCCC2)c(C)c1` [Cmpd 1241] gave an inhibition of growth at 177.6 µg/mL of 68.2%.

Under setting [2], `Cc1cccc(C/N=C(\Sc2ccc(C)cc2C)N(Cc2cccc(O)c2)CC2CCCCC2)c1` [Cmpd 1242] gave an inhibition of growth at 177.6 µg/mL of 54.8%.

For the molecule `Cc1ccc(S/C(=N\Cc2ccc(F)cc2)N(Cc2cccc(O)c2)CC2CCCCC2)c(C)c1` [Cmpd 1244], the inhibition of growth at 177.6 µg/mL under setting [2] was determined as 53.8%.

`Cc1ccc(S/C(=N\c2ccc(F)cc2F)N(Cc2cccc(O)c2)CC2CCCCC2)c(C)c1` [Cmpd 1245]: the inhibition of growth at 177.6 µg/mL under setting [2] came to 53.8%.

`Cc1ccc(S/C(=N\c2ccc(F)c(Cl)c2)N(Cc2cccc(O)c2)CC2CCCCC2)c(C)c1` [Cmpd 1254]: at 177.6 µg/mL the inhibition of growth under setting [1] was 62.1%.

As for `CCc1ccc(/N=C(\Sc2ccc(C)cc2C)N(Cc2cccc(O)c2)CC2CCCCC2)cc1` [Cmpd 1260], under setting [1], the inhibition of growth at 177.6 µg/mL worked out at 57.3%.

`CCOc1ccc(/N=C(/Sc2ccc(C)cc2C)N(Cc2cccc(O)c2)CC2CCCCC2)cc1` [Cmpd 1261] showed an inhibition of growth at 177.6 µg/mL under setting [2] of 51.9%.

The molecule `Cc1ccc(S/C(=N/c2ccc(F)c([N+](=O)[O-])c2)N(Cc2cccc(O)c2)CC2CCCCC2)c(C)c1` [Cmpd 1262] returned an inhibition of growth at 177.6 µg/mL under setting [1] of 67.2%.

Under setting [2], `Cc1ccc(S/C(=N/c2ccc(Cl)c([N+](=O)[O-])c2)N(Cc2cccc(O)c2)CC2CCCCC2)c(C)c1` [Cmpd 1263] yielded an inhibition of growth at 177.6 µg/mL of 56.7%.

For `Cc1ccc(S/C(=N\c2ccc(Cl)cc2)N(Cc2cccc(O)c2)CC2CCCCC2)c(C)c1` [Cmpd 1265], the inhibition of growth at 177.6 µg/mL under setting [1] came to 88.3%.

With `Cc1ccc(S/C(=N/c2ccc(Cl)c(C(F)(F)F)c2)N(Cc2cccc(O)c2)CC2CCCCC2)c(C)c1` [Cmpd 1273], the inhibition of growth at 177.6 µg/mL under setting [2] amounted to 52.2%.

Molecule `Cc1ccc(S/C(=N\c2ccc(F)c(F)c2)N(Cc2cccc(O)c2)CC2CCCCC2)c(C)c1` [Cmpd 1276] returned an inhibition of growth at 177.6 µg/mL under setting [1] of 57.3%.

Molecule `COCCN(Cc1cccc(O)c1)/C(=N\c1ccccc1F)Sc1ccc(C)cc1C` [compound 107] returned an inhibition of growth at 177.6 µg/mL under setting [1] of 75.8%.
